These results are taken from ChEMBL document CHEMBL1777772, “Synthesis and evaluation of heteroarylalanine diacids as potent and selective neutral endopeptidase inhibitors” (Bioorg Med Chem Lett, 2011).

One series has as its target Neprilysin (Homo sapiens, UniProt P08473).
Series [1] addresses Angiotensin-converting enzyme (Homo sapiens) (UniProt P12821).
The nature of series [2]: Clearance in iv dosed rat. To be noted: in vivo. It is filed as ADME, organism-based.
Series [3] in a line: Oral bioavailability in rat. Type of series: ADME, organism-based. To be noted: in vivo.
Series [4] can be described thus: Half life in iv dosed rat. Type of series: ADME, organism-based. To be noted: in vivo.

The structures appear in SMILES notation.

Chain of Neprilysin (P08473 whole entry): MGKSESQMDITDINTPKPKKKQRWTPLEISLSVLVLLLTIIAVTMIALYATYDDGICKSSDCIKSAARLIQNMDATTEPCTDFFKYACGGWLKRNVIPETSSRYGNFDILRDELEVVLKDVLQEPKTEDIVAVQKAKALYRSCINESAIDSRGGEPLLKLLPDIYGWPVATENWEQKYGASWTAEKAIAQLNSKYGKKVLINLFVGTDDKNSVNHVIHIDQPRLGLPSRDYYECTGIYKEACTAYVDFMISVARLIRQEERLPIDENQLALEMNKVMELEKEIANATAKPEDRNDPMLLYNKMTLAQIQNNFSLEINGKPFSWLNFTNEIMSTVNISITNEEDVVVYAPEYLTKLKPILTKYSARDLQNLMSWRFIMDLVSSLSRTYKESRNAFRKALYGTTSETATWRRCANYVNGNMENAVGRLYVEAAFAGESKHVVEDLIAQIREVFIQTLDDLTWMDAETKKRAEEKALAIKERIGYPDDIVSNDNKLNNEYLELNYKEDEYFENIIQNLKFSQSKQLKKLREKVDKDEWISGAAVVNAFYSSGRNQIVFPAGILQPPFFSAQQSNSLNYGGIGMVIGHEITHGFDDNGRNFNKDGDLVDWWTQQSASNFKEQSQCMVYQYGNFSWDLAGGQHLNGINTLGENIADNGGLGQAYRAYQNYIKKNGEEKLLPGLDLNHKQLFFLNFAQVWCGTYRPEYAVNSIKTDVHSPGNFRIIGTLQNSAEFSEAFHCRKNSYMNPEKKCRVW
Chain of Angiotensin-converting enzyme (Homo sapiens) (P12821 whole entry, looked up): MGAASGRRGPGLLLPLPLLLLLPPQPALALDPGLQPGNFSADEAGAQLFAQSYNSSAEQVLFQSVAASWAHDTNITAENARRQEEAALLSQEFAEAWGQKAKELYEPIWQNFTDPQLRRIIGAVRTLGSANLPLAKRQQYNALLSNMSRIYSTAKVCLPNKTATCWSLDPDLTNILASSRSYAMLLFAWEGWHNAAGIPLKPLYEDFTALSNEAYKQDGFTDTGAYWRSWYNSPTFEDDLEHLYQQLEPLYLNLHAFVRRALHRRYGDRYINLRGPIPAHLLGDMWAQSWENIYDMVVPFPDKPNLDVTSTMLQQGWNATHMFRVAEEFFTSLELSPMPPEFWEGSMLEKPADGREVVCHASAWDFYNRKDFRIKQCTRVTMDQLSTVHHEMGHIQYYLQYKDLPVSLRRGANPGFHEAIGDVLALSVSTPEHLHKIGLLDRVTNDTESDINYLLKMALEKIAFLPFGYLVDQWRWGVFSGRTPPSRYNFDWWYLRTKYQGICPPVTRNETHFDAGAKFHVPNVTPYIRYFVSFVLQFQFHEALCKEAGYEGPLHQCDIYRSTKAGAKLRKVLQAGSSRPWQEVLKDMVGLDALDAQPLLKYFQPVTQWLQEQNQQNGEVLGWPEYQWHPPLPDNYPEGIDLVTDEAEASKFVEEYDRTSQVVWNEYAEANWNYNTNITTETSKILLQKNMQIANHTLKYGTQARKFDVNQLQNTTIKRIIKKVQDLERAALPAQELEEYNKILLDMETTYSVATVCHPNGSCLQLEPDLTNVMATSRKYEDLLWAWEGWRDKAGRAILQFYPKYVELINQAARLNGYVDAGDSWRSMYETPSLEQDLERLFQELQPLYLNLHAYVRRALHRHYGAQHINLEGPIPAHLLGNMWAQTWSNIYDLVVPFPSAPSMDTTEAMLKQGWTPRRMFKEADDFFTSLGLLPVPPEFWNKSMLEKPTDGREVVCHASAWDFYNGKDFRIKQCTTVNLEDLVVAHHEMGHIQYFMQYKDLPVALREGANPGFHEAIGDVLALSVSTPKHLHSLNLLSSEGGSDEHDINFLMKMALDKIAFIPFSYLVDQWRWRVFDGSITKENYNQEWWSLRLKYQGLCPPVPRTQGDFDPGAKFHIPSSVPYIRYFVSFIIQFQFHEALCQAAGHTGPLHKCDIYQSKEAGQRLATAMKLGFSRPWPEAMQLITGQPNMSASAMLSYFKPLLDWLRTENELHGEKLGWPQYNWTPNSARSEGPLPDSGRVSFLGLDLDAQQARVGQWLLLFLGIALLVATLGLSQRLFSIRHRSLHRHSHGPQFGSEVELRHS
Description for Neprilysin: Inhibition of neutral endopeptidase

With `CC(C)CC[C@H](N[C@@H](CCc1ccccc1)C(=O)O)C(=O)N[C@@H](Cc1ccc(-c2ccccc2)cc1)C(=O)O`, the IC50 was 28 nM against Neprilysin and 1.5 nM in series [1]. On the same counts, the results for `CCC[C@H](NC1(C(=O)N[C@@H](Cc2nc(CC)co2)C(=O)O)CCCC1)C(=O)O` are 22 nM and 130 nM. On the same counts, the results for `CCC[C@H](NC1(C(=O)N[C@@H](Cc2nc(CC(C)C)co2)C(=O)O)CCCC1)C(=O)O` are 20 nM and 75 nM.

In series [1], `CCC[C@H](NC1(C(=O)N[C@@H](Cc2nc(-c3ccccc3)co2)C(=O)O)CCCC1)C(=O)O` came in with an IC50 of 25 nM. On the same count and under the same terms, for `CCC[C@H](NC1(C(=O)N[C@@H](Cc2ncc(-c3ccccc3)o2)C(=O)O)CCCC1)C(=O)O` the value was 82 nM; for `COCC[C@H](NC1(C(=O)N[C@@H](Cc2nc(-c3ccccc3)co2)C(=O)O)CCCC1)C(=O)O`, 130 nM. `COCC[C@H](NC1(C(=O)N[C@@H](Cc2ncc(-c3ccccc3)o2)C(=O)O)CCCC1)C(=O)O` had a clearance in series [2] of 4.8 mL/min/kg. This compound also displayed a bioavailability in series [3] of 1.7%. Moreover, the half-life in series [4] was 2.1 h. This compound also had an IC50 in series [1] of 270 nM.

`COCC[C@H](NC1(C(=O)N[C@@H](Cc2nc(C)c(-c3ccccc3)o2)C(=O)O)CCCC1)C(=O)O` displayed an IC50 in series [1] of 210 nM. As for `COCC[C@H](NC1(C(=O)N[C@@H](Cc2ncc(-c3ccc(Cl)cc3)o2)C(=O)O)CCCC1)C(=O)O`, the IC50 against Neprilysin amounted to 0.3 nM; in series [1], 195 nM. On the same counts, the results for `COCC[C@H](NC1(C(=O)N[C@@H](Cc2nnc(-c3ccccc3)o2)C(=O)O)CCCC1)C(=O)O` are 6 nM and more than 3000 nM. Consider `COCC[C@H](NC1(C(=O)N[C@@H](Cc2nc(-c3ccccc3)no2)C(=O)O)CCCC1)C(=O)O`, for which the IC50 stood at 1.9 nM against Neprilysin and 58 nM in series [1]. In the case of `COCCOC[C@H](CC1(C(=O)N[C@H]2CC[C@@H](C(=O)O)CC2)CCCC1)C(=O)O` [CANDOXATRILAT], the figures for the IC50 (at Neprilysin; in series [1]) were 7.8 nM and “Not Active”, respectively. Taken in the same sequence, the figures for `CS(=O)(=O)N[C@@H](CCCCN)C(=O)NC[C@H](CC1(C(=O)N[C@@H](Cc2ccc(O)cc2)C(=O)O)CCCC1)C(=O)O` [SAMPATRILAT] were 0.6 nM and 3.4 nM.
